Here are results for three compounds from patent US20260378560A1, “APPROACHES TO DESIGNING AND PERFORMING COMPRESSED BIOLOGICAL EXPERIMENTS AND SYSTEMS FOR IMPLEMENTING THE SAME” (EXVIVO LABS INC., priority 2023, published 2026).

The test system of the first assay is REH. As to the kind of experiment: Cell viability (CellTiter Glo), compressed perturbation pools with informed pool design, MAX-based deconvolution, REH.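 As to DRS from MAX-based deconvolution: higher DRS means a larger drug effect.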 The following applies: REH, None (measured individually), informed pool design table. An outline of the steps:
(§1)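 Per-drug DRS recovered by MAX deconvolution, which assumes the strongest pool member masks the rest; after ranking, each drug in turn takes the DRS of the lowest-signal pool containing it, and leftovers score zero. Pools built from drug class and known toxic combinations; dose-response spans 1 nM to 10 μM, read by ATP-based luminescence.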
In general terms: In ATP-based viability assays light output follows the ATP content of the culture.
On to `CC(C)C[C@H](NC(=O)[C@H](Cc1ccccc1)NC(=O)c1cnccn1)B(O)O` [Bortezomib], for which the DRS was 2.40.

With `CC[C@H](Nc1ncnc2[nH]cnc12)c1nc2cccc(F)c2c(=O)n1-c1ccccc1` [Idelalisib], the DRS turned out to be 0.30.

In the case of `C#Cc1cccc(Nc2ncnc3cc(OCCOC)c(OCCOC)cc23)c1` [Erlotinib], the DRS is 5.88.

The assay is the same for the next values; noted with them: REH, Samples, 7 Pick 3 informed perturbation pools.
With `CC(C)C[C@H](NC(=O)[C@H](Cc1ccccc1)NC(=O)c1cnccn1)B(O)O` [Bortezomib], the “DRS from MAX-based deconvolution” value is 2.90.

Turning to `CC[C@H](Nc1ncnc2[nH]cnc12)c1nc2cccc(F)c2c(=O)n1-c1ccccc1` [Idelalisib], the “DRS from MAX-based deconvolution” value was 0.74.

In the case of `C#Cc1cccc(Nc2ncnc3cc(OCCOC)c(OCCOC)cc23)c1` [Erlotinib], the “DRS from MAX-based deconvolution” value came to 7.06.

The assay is the same for the next values; noted with them: REH, informed perturbation pools.
For `CC(C)C[C@H](NC(=O)[C@H](Cc1ccccc1)NC(=O)c1cnccn1)B(O)O` [Bortezomib], the “top hit of cohort (deconvoluted effect size)” value was “top hit”.

The assay is the same for the next values; noted with them: REH; compressed perturbation pools, informed pool design; MAX-based deconvolution.
On to `CC(C)C[C@H](NC(=O)[C@H](Cc1ccccc1)NC(=O)c1cnccn1)B(O)O` [Bortezomib], for which the “DRS, REH, MAX” value is 31.61.

Take `CC[C@H](Nc1ncnc2[nH]cnc12)c1nc2cccc(F)c2c(=O)n1-c1ccccc1` [Idelalisib]: the “DRS, REH, MAX” value was determined as 0.00.

On to `C#Cc1cccc(Nc2ncnc3cc(OCCOC)c(OCCOC)cc23)c1` [Erlotinib], for which the “DRS, REH, MAX” value is 0.00.

A further assay concerns MOLT-4. The experiment in a line: Cell viability (CellTiter Glo), compressed perturbation pools with informed pool design, MAX-based deconvolution, MOLT-4.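 As to DRS from MAX-based deconvolution: higher DRS means a larger drug effect.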 The following applies: MOLT, informed perturbation pools. Put shortly:
as §1
As for `CC(C)C[C@H](NC(=O)[C@H](Cc1ccccc1)NC(=O)c1cnccn1)B(O)O` [Bortezomib], the “top hit of cohort (deconvoluted effect size)” value was “top hit”.

Still in this assay, the particulars now being: MOLT-4, None (measured individually), informed pool design table.
With `CC(C)C[C@H](NC(=O)[C@H](Cc1ccccc1)NC(=O)c1cnccn1)B(O)O` [Bortezomib], the DRS was 2.50.

With `CC[C@H](Nc1ncnc2[nH]cnc12)c1nc2cccc(F)c2c(=O)n1-c1ccccc1` [Idelalisib], the DRS is given as 0.00.

For the compound `C#Cc1cccc(Nc2ncnc3cc(OCCOC)c(OCCOC)cc23)c1` [Erlotinib], the DRS was determined as 0.68.

The assay is the same for the next values; noted with them: MOLT-4, Samples, 7 Pick 3 informed perturbation pools.
As for `CC(C)C[C@H](NC(=O)[C@H](Cc1ccccc1)NC(=O)c1cnccn1)B(O)O` [Bortezomib], the “DRS from MAX-based deconvolution” value turned out to be 2.76.

Regarding `CC[C@H](Nc1ncnc2[nH]cnc12)c1nc2cccc(F)c2c(=O)n1-c1ccccc1` [Idelalisib], the “DRS from MAX-based deconvolution” value was 0.00.

In the case of `C#Cc1cccc(Nc2ncnc3cc(OCCOC)c(OCCOC)cc23)c1` [Erlotinib], the “DRS from MAX-based deconvolution” value is 5.39.

The same assay, now with this note: MOLT-4; compressed perturbation pools, informed pool design; MAX-based deconvolution.
On to `CC(C)C[C@H](NC(=O)[C@H](Cc1ccccc1)NC(=O)c1cnccn1)B(O)O` [Bortezomib], for which the “DRS, MOLT-4, MAX” value was 28.24.

As for `CC[C@H](Nc1ncnc2[nH]cnc12)c1nc2cccc(F)c2c(=O)n1-c1ccccc1` [Idelalisib], the “DRS, MOLT-4, MAX” value is reported as 0.00.

`C#Cc1cccc(Nc2ncnc3cc(OCCOC)c(OCCOC)cc23)c1` [Erlotinib]: the “DRS, MOLT-4, MAX” value turned out to be 0.00.

The test system of a further assay is MOLT-4. As to the kind of experiment: Cell viability (CellTiter Glo), compressed perturbation pools with informed pool design, SUM-based deconvolution, MOLT-4. The arrangement: scale not given here.
Details: not given
As to the method:
(§2) Total cell viability was measured for each sample using an ATP-based luminescence assay (i.e., CellTiter Glo). Each cancer drug was then screened at multiple concentrations ranging from one nM to ten μM in order to generate a dose-response curve and calculate a DRS for each cancer cell line.
(§3) Each cancer drug was cultured with target cells individually. At the end of the screen, samples were either analyzed individually or compressed into pools for analysis. The library was compressed alphabetically into ten cohorts, each of which contained seven cancer drugs present in three out of the seven pools, as shown in Table VII. Said another way, the screening platform 210 generated a “7 pick 3” compressed library by assigning the cancer drugs among different pools. […] The library was also compressed into ten cohorts with pools designed based on information known about each cancer drug, as shown in Table VIII. After cell viability measurement and DRS calculation, the DRS of each cancer drug in the samples generated based on the pools were deconvoluted and compared to the DRS for each cancer drug measured individually.
(§4) In parallel to the exemplary sample compression screen covered in Table VII, perturbations were compressed into pools and then screened. The pools were designed using drug class as a feature with two compression rules (or simply “rules”). The first rule required that drugs from the same class be separated into different cohorts (i.e., mutually exclusive groups of pools). The second rule separated PI3K pathway inhibitors from MAPK pathway inhibitors, as inhibiting these pathways in parallel is known to be synergistic but has not been clinically effective due to dose-limiting toxicities. A benefit of compressing perturbations is the ability to measure additive, antagonistic, and synergistic effects between drugs in the same pool. However, these effects can negatively impact deconvolution of individual drug effects. Therefore, combinations of drugs for which evidence of clinical toxicity exists can be assigned to different pools in accordance with an informed pooling operation. As new preclinical or clinical evidence of toxic combinations becomes available, the rules implemented by the screening platform 210—and more specifically, its algorithm for compressing members of a library—can be updated accordingly.
(§5) In SUM-based deconvolution, an assumption of additivity is used to quantify the individual effects of each perturbation on each target. Additivity implies that each perturbation effect on each target is positively contributing to the overall effect measured for that pool. This is an accurate assumption for certain experiments, such as when targets or samples are compressed. When targets are pooled—or when samples containing different targets are pooled—the effect of each perturbation on each individual target is diluted. In other words, each perturbation has an isolated effect on a target in culture, and the sum total of the isolated effects are measured when pooled. Therefore, SUM-based deconvolution breaks down the sum total measured for a pool and assigns estimated fractional effects to each compressed perturbation or target in the pool. The screening platform 210 used SUM-based deconvolution for all target and sample compression experiments described above.
(§6) As mentioned above, SUM-based deconvolution uses the overlapping pool design to identify relative relationships and ranges for the individual effects of each perturbation. When the overlapping pool design is not sufficient to solve for the polynomials representing perturbation effects, an anchor perturbation can be identified by the screening platform 210 based on rank order and assigned an effect size of zero. The anchor perturbation may be the lowest ranked perturbation in the rank order. This then enables the screening platform 210 to solve for the polynomials for the remaining perturbations.
Consider `CC(C)C[C@H](NC(=O)[C@H](Cc1ccccc1)NC(=O)c1cnccn1)B(O)O` [Bortezomib], for which the “DRS, MOLT-4, SUM” value turned out to be 23.95.

For the compound `CC[C@H](Nc1ncnc2[nH]cnc12)c1nc2cccc(F)c2c(=O)n1-c1ccccc1` [Idelalisib], the “DRS, MOLT-4, SUM” value came to 0.54.

As to `C#Cc1cccc(Nc2ncnc3cc(OCCOC)c(OCCOC)cc23)c1` [Erlotinib], the “DRS, MOLT-4, SUM” value stood at 1.55.

The test system of another assay is MOLT-4. As to the kind of experiment: Cell viability (CellTiter Glo), library of cancer drugs, individual or sample compression with randomized (alphabetical) pools, MOLT-4. Type of assay: cell-based. The following applies: MOLT-4, None (measured individually). Put shortly: (§7)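 Cells cultured with each drug individually at 1 nM–10 μM; viability by ATP luminescence (CellTiter Glo) to build dose-response curves and DRS. Samples read singly or pooled alphabetically (each drug in 3 of 7 pools), with pooled DRS recovered by additivity-based SUM deconvolution.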
`CC(C)C[C@H](NC(=O)[C@H](Cc1ccccc1)NC(=O)c1cnccn1)B(O)O` [Bortezomib]: the DRS was found to be 25.00.

`CC[C@H](Nc1ncnc2[nH]cnc12)c1nc2cccc(F)c2c(=O)n1-c1ccccc1` [Idelalisib] showed a DRS of 0.80.

In the case of `C#Cc1cccc(Nc2ncnc3cc(OCCOC)c(OCCOC)cc23)c1` [Erlotinib], the DRS stood at 1.04.

Staying with this assay, now noted: MOLT-4, Samples, 7 Pick 3 randomized (alphabetical) sample pools.
In turn, `CC(C)C[C@H](NC(=O)[C@H](Cc1ccccc1)NC(=O)c1cnccn1)B(O)O` [Bortezomib] registered a DRS from deconvolution of 25.41.

`CC[C@H](Nc1ncnc2[nH]cnc12)c1nc2cccc(F)c2c(=O)n1-c1ccccc1` [Idelalisib] yielded a DRS from deconvolution of 0.69.

`C#Cc1cccc(Nc2ncnc3cc(OCCOC)c(OCCOC)cc23)c1` [Erlotinib] gave a DRS from deconvolution of 0.96.

A further assay concerns REH. As to the kind of experiment: Cell viability (CellTiter Glo), compressed perturbation pools with informed pool design, SUM-based deconvolution, REH.
Details: not given
The arrangement: scale not given here. The protocol: as §2, §3, §4, §5, §6
Consider `CC(C)C[C@H](NC(=O)[C@H](Cc1ccccc1)NC(=O)c1cnccn1)B(O)O` [Bortezomib], for which the “DRS, REH, SUM” value is listed as 22.86.

Consider `CC[C@H](Nc1ncnc2[nH]cnc12)c1nc2cccc(F)c2c(=O)n1-c1ccccc1` [Idelalisib], for which the “DRS, REH, SUM” value was 0.00.

`C#Cc1cccc(Nc2ncnc3cc(OCCOC)c(OCCOC)cc23)c1` [Erlotinib]: the “DRS, REH, SUM” value turned out to be 1.67.

Another assay relates to REH. The experiment in a line: Cell viability (CellTiter Glo), library of cancer drugs, individual or sample compression with randomized (alphabetical) pools, REH. Type of assay: cell-based. The settings on record: REH, None (measured individually). An outline of the steps: as §7
As to `CC(C)C[C@H](NC(=O)[C@H](Cc1ccccc1)NC(=O)c1cnccn1)B(O)O` [Bortezomib], the DRS came out at 27.70.

Compound `CC[C@H](Nc1ncnc2[nH]cnc12)c1nc2cccc(F)c2c(=O)n1-c1ccccc1` [Idelalisib] yielded a DRS of 0.91.

For the compound `C#Cc1cccc(Nc2ncnc3cc(OCCOC)c(OCCOC)cc23)c1` [Erlotinib], the DRS is recorded as 1.84.

Staying with this assay, now noted: REH, Samples, 7 Pick 3 randomized (alphabetical) sample pools.
`CC(C)C[C@H](NC(=O)[C@H](Cc1ccccc1)NC(=O)c1cnccn1)B(O)O` [Bortezomib] came in with a DRS from deconvolution of 28.16.

On to `CC[C@H](Nc1ncnc2[nH]cnc12)c1nc2cccc(F)c2c(=O)n1-c1ccccc1` [Idelalisib], for which the DRS from deconvolution is 0.85.

Turning to `C#Cc1cccc(Nc2ncnc3cc(OCCOC)c(OCCOC)cc23)c1` [Erlotinib], the DRS from deconvolution was 1.59.
